Experimental findings from ChEMBL document CHEMBL1157093, “Lactonecembranoids from Croton laevigatus” (J Nat Prod, 2010) are described below.

Molecules are shown by their SMILES.

The first assay deals with HeLa. In words: Antiproliferative activity against human HeLa cells by MTT assay. It counts as functional, cell-based. The following applies: Homo sapiens, HeLa; read-out: IC50.
Usually IC50 stands for the concentration that inhibits the measured activity by half. Consider `C/C1=C\CC[C@](C)(O)/C=C/[C@]2(C(C)C)CC/C(=C/CC1)C(=O)O2` (relative stereo) [LAEVIGATLACTON B], for which the IC50 was 38.4 µM.

The same assay, now with this note: hela.
With `C/C1=C\CC[C@@](C)(O)/C=C/[C@]2(C(C)C)CC/C(=C\CC1)C(=O)O2` (relative stereo) [LAEVIGATLACTONE A], the IC50 result is “Not Active”. Consider `C/C1=C\CC[C@](C)(O)/C=C/[C@]2(C(C)C)CC/C(=C\CC1)C(=O)O2` (relative stereo) [LAEVIGATLACTONE C], for which the IC50 result is “Not Active”.

In the case of `C/C1=C\CC/C(C)=C/[C@@H](O)[C@]2(C(C)C)CC/C(=C\CC1)C(=O)O2` (relative stereo) [LAEVIGATLACTONE D], the IC50 entry is reported as “Not Active”. Still for that read-out and setting: under `CC(C)[C@@]12/C=C/[C@@](C)(O)C/C=C/[C@](C)(O)CC/C=C(\CC1)C(=O)O2` (relative stereo) [LAEVIGATLACTONE E] stands “Not Active”. Still for that read-out and setting: under `CC(C)[C@@]12/C=C/[C@@](C)(O)C/C=C/[C@](C)(OO)CC/C=C(\CC1)C(=O)O2` (relative stereo) [LAEVIGATLACTONE F] stands “Not Active”; under `C/C1=C\C=C(\C(C)C)CC/C(C(=O)O)=C\CC/C(C)=C/CC1` [NEOCROTOCEMBRANEIC ACID], “Not Active”.
